From patent US6737383B1, “Herbicidal oxadiazolidines” (priority 1999, dated 2004)

Tests used:
blackgrass = test: Test B pre/postemergence blackgrass; assay type: in vivo, Alopecurus myosuroides
In short: (§1)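 Test chemicals in a non-phytotoxic solvent mixture with surfactant were sprayed preemergence onto planted seeds and postemergence onto plants 2 to 18 cm tall (1- to 4-leaf stage). After twelve to sixteen days in a greenhouse, injury was visually rated against untreated controls from 0 (no effect) to 10 (complete control).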

giant foxtail = test: Test B pre/postemergence giant foxtail; assay type: in vivo, Setaria faberii
In short: as §1

morningglory = test: Test B pre/postemergence morningglory; assay type: in vivo, Ipomoea hederacea
In short: as §1

rape = test: Test B pre/postemergence rape; assay type: in vivo, Brassica napus
In short: as §1

cocklebur = test: Test B pre/postemergence cocklebur; assay type: in vivo, Xanthium strumarium
In short: as §1

velvetleaf = test: Test B pre/postemergence velvetleaf; assay type: in vivo, Abutilon theophrasti
In short: as §1

surinam grass = test: Test B pre/postemergence surinam grass; assay type: in vivo, Brachiaria decumbens
In short: as §1

pigweed = test: Test B pre/postemergence pigweed; assay type: in vivo, Amaranthus retroflexus
In short: as §1

corn = test: Test B pre/postemergence corn; assay type: in vivo, Zea mays
In short: as §1

soybean = test: Test B pre/postemergence soybean; assay type: in vivo, Glycine max
In short: as §1

purple nutsedge = test: Test B pre/postemergence purple nutsedge; assay type: in vivo, Cyperus rotundus
In short: as §1

wild oat = test: Test B pre/postemergence wild oat; assay type: in vivo, Avena fatua
In short: as §1

sugar beet = test: Test B pre/postemergence sugar beet; assay type: in vivo, Beta vulgaris
In short: as §1

wheat = test: Test B pre/postemergence wheat; assay type: in vivo, Triticum aestivum
In short: as §1

bedstraw = test: Test B pre/postemergence bedstraw; assay type: in vivo, Galium aparine
In short: as §1

crabgrass = test: Test B pre/postemergence crabgrass; assay type: in vivo, Digitaria sanguinalis
In short: as §1

[1] = Postemergence, Rate 62 g/ha, scale of 0 to 10, 0 is no effect, 10 is complete control
[2] = Postemergence, Rate 125 g/ha, scale 0 to 10, 0 is no effect, 10 is complete control
[3] = Postemergence, Rate 500 g/ha, scale 0 to 10, 0 is no effect, 10 is complete control
[4] = Preemergence, Rate 62 g/ha, scale 0 to 10 (0 no effect, 10 complete control)
[5] = Preemergence, Rate 125 g/ha, scale 0 to 10, 0 is no effect, 10 is complete control
[6] = Preemergence, Rate 500 g/ha, scale of 0 to 10 where 0 is no effect and 10 is complete control
[7] = Rate 250 g/ha, Postemergence, scale of 0 to 10 where 0 is no effect and 10 is complete control

## CC(C)=CCn1c(=O)on(C(=O)N(c2ccc(Cl)cc2)C(C)C)c1=O [Compound 545]
blackgrass; [1]
  Blackgrass plant response rating: 0
blackgrass; [2]
  Blackgrass plant response rating: 0
blackgrass; [3]
  Plant response rating, Blackgrass: 0
blackgrass; [4]
  Blackgrass plant response rating: 0
blackgrass; [5]
  Blackgrass plant response rating: 0
blackgrass; Preemergence, Rate 250 g/ha
  Blackgrass plant response rating (0 to 10 scale): 2
blackgrass; [6]
  Blackgrass plant response rating: 9
blackgrass; [7]
  Plant response rating, Blackgrass: 0
Giant foxtail; [1]
  Giant foxtail plant response rating: 0
Giant foxtail; [2]
  Giant foxtail plant response rating: 0
Giant foxtail; [3]
  Plant response rating, Giant foxtail: 5
Giant foxtail; [4]
  Giant foxtail plant response rating: 10
Giant foxtail; [5]
  Giant foxtail plant response rating: 10
Giant foxtail; Preemergence, Rate 250 g/ha
  Giant foxtail plant response rating (0 to 10 scale): 10
Giant foxtail; [6]
  Giant foxtail plant response rating: 10
Giant foxtail; [7]
  Plant response rating, Giant foxtail: 3
morningglory; [1]
  Morningglory plant response rating: 4
morningglory; [2]
  Morningglory plant response rating: 4
morningglory; [4]
  Morningglory plant response rating: 0
morningglory; [5]
  Morningglory plant response rating: 0
morningglory; Preemergence, Rate 250 g/ha
  Morningglory plant response rating (0 to 10 scale): 0
morningglory; [6]
  Morningglory plant response rating: 8
morningglory; [7]
  Plant response rating, Morningglory: 10
rape; [1]
  Rape plant response rating: 0
rape; [2]
  Rape plant response rating: 0
rape; [3]
  Plant response rating, Rape: 3
rape; [4]
  Rape plant response rating: 0
rape; [5]
  Rape plant response rating: 0
rape; Preemergence, Rate 250 g/ha
  Rape plant response rating (0 to 10 scale): 0
rape; [6]
  Rape plant response rating: 2
rape; [7]
  Plant response rating, Rape: 0
cocklebur; [1]
  Cocklebur plant response rating: 0
cocklebur; [2]
  Cocklebur plant response rating: 3
cocklebur; [4]
  Cocklebur plant response rating: 0
cocklebur; [5]
  Cocklebur plant response rating: 0
cocklebur; Preemergence, Rate 250 g/ha
  Cocklebur plant response rating (0 to 10 scale): 0
cocklebur; [6]
  Cocklebur plant response rating: 0
cocklebur; [7]
  Plant response rating, Cocklebur: 8
velvetleaf; [1]
  Velvetleaf plant response rating: 0
velvetleaf; [2]
  Velvetleaf plant response rating: 3
velvetleaf; [4]
  Velvetleaf plant response rating: 0
velvetleaf; [5]
  Velvetleaf plant response rating: 0
velvetleaf; Preemergence, Rate 250 g/ha
  Velvetleaf plant response rating (0 to 10 scale): 0
velvetleaf; [6]
  Velvetleaf plant response rating: 0
velvetleaf; [7]
  Plant response rating, Velvetleaf: 6
Surinam grass; [1]
  B. signalgrass plant response rating: 0
Surinam grass; [2]
  B. signalgrass plant response rating: 0
Surinam grass; [3]
  Plant response rating, B. signalgrass: 2
Surinam grass; [4]
  B. signalgrass plant response rating: 0
Surinam grass; [5]
  B. signalgrass plant response rating: 0
Surinam grass; Preemergence, Rate 250 g/ha
  B. signalgrass plant response rating (0 to 10 scale, 0 is no effect, 10 is complete control): 0
Surinam grass; [6]
  B. signalgrass plant response rating: 5
Surinam grass; [7]
  Plant response rating, B. signalgrass: 2
pigweed; [1]
  Redroot pigweed plant response rating: 0
pigweed; [2]
  Redroot pigweed plant response rating: 0
pigweed; [3]
  Plant response rating, Redroot pigweed: 0
pigweed; [4]
  Redroot pigweed plant response rating: 3
pigweed; [5]
  Redroot pigweed plant response rating: 8
pigweed; Preemergence, Rate 250 g/ha
  Redroot pigweed plant response rating (0 to 10 scale): 9
pigweed; [6]
  Redroot pigweed plant response rating: 10
pigweed; [7]
  Plant response rating, Redroot pigweed: 0
corn; [1]
  Corn plant response rating: 0
corn; [2]
  Corn plant response rating: 0
corn; [3]
  Plant response rating, Corn: 0
corn; [4]
  Corn plant response rating: 0
corn; [5]
  Corn plant response rating: 0
corn; Preemergence, Rate 250 g/ha
  Corn plant response rating (0 to 10 scale): 0
corn; [6]
  Corn plant response rating: 0
corn; [7]
  Plant response rating, Corn: 0
soybean; [1]
  Soybean plant response rating: 1
soybean; [2]
  Soybean plant response rating: 1
soybean; [3]
  Plant response rating, Soybean: 2
soybean; [4]
  Soybean plant response rating: 0
soybean; [5]
  Soybean plant response rating: 0
soybean; Preemergence, Rate 250 g/ha
  Soybean plant response rating (0 to 10 scale): 0
soybean; [6]
  Soybean plant response rating: 0
soybean; [7]
  Plant response rating, Soybean: 2
Purple nutsedge; [1]
  Nutsedge plant response rating: 0
Purple nutsedge; [4]
  Nutsedge plant response rating: 0
Purple nutsedge; [5]
  Nutsedge plant response rating: 0
Purple nutsedge; Preemergence, Rate 250 g/ha
  Nutsedge plant response rating (0 to 10 scale): 0
Purple nutsedge; [6]
  Nutsedge plant response rating: 0
Wild oat; [1]
  Wild oats plant response rating: 0
Wild oat; [2]
  Wild oats plant response rating: 0
Wild oat; [3]
  Plant response rating, Wild oats: 0
Wild oat; [4]
  Wild oats plant response rating: 0
Wild oat; [5]
  Wild oats plant response rating: 0
Wild oat; Preemergence, Rate 250 g/ha
  Wild oats plant response rating (0 to 10 scale): 2
Wild oat; [6]
  Wild oats plant response rating: 6
Wild oat; [7]
  Plant response rating, Wild oats: 0
Sugar beet; [1]
  Sugarbeets plant response rating: 0
Sugar beet; [2]
  Sugarbeets plant response rating: 0
Sugar beet; [3]
  Plant response rating, Sugarbeets: 3
Sugar beet; [4]
  Sugarbeets plant response rating: 0
Sugar beet; [5]
  Sugarbeets plant response rating: 0
Sugar beet; Preemergence, Rate 250 g/ha
  Sugarbeets plant response rating (0 to 10 scale): 2
Sugar beet; [6]
  Sugarbeets plant response rating: 6
Sugar beet; [7]
  Plant response rating, Sugarbeets: 0
wheat; [1]
  Wheat plant response rating: 0
wheat; [2]
  Wheat plant response rating: 0
wheat; [3]
  Plant response rating, Wheat: 0
wheat; [4]
  Wheat plant response rating: 0
wheat; [5]
  Wheat plant response rating: 0
wheat; Preemergence, Rate 250 g/ha
  Wheat plant response rating (0 to 10 scale): 0
wheat; [6]
  Wheat plant response rating: 2
wheat; [7]
  Plant response rating, Wheat: 0
bedstraw; [1]
  Bedstraw plant response rating: 0
bedstraw; [2]
  Bedstraw plant response rating: 0
bedstraw; [3]
  Plant response rating, Bedstraw: 7
bedstraw; [4]
  Bedstraw plant response rating: 0
bedstraw; [5]
  Bedstraw plant response rating: 0
bedstraw; Preemergence, Rate 250 g/ha
  Bedstraw plant response rating (0 to 10 scale): 0
bedstraw; [6]
  Bedstraw plant response rating: 10
bedstraw; [7]
  Plant response rating, Bedstraw: 2
crabgrass; [1]
  Crabgrass plant response rating: 0
crabgrass; [2]
  Crabgrass plant response rating: 2
crabgrass; [3]
  Plant response rating, Crabgrass: 9
crabgrass; [4]
  Crabgrass plant response rating: 8
crabgrass; [5]
  Crabgrass plant response rating: 10
crabgrass; Preemergence, Rate 250 g/ha
  Crabgrass plant response rating (0 to 10 scale): 10
crabgrass; [6]
  Crabgrass plant response rating: 10
crabgrass; [7]
  Plant response rating, Crabgrass: 3
